{"source": "patent US20150320692A1", "about": "(UNIWERSYTET LÓDZKI, priority 2012, published 2015)", "system": "CLL cells (leukemic lymphocytes)", "experiment": "Assessment of mitochondrial membrane potential (CMXRos, flow cytometry)", "type": "cell-based, human", "settings": "for mean percentage of cells with lower mitochondrial potential (ΔΨm^low/Gly-A^−): 1.6 μM", "text": "Mitochondrial membrane potential is an early indicator of apoptosis. CMXRos, i.e. Chloromethyl-X-rosamine (the reagent's name by Mito Tracker Red CMXRos, Molecular Probes, USA), and a monoclonal antibody to glycophorin A conjugated with FITC (the reagent's name of Anti-Glycophorin A FITC by Dako, Denmark) were used for its assessment. CMXRos is a lipophilic cationic dye that accumulates in the mitochondrial matrix of viable cells when there is an electronegative load on the inner surface of the mitochondrial membrane. This asymmetric location of protons along the inner mitochondrial membrane leads to a high mitochondrial membrane potential (ΔΨm) in living cells. A decreased mitochondrial potential ΔΨm is one of the first symptoms of apoptosis during the process of induction, which results in lowering of the mitochondrial uptake of CMXRos.\nThe stock CMXRos solution was prepared by dilution of the substance supplied by the manufacturer in 94 μl DMSO (dimethylsulphoxide), and stored at […]. Then working solution was prepared also using DMSO (1:10) and stored at 4° C. Mononuclear cells, i.e. leukemic lymphocytes, at 1×10^6 MNCs/ml concentration, were incubated with CMXRos (2.5 μl working solution in 500 μl RPMI 1640 medium) at 37° C. for 30 minutes. […] The samples were next measured using flow cytometry. The percentage of cells not bound to anti-glycophorin A-FITC (ΔΨm^low/Gly-A^− cells), with low mitochondrial potential, was calculated.\nAll fluorescence measurements were performed by a flow cytometer FACSCalibur (Becton Dickinson, USA) equipped with an argon laser 488 nm and computer program CellQuestPro (Becton Dickinson, USA). Each time 10 000 cells were evaluated. The fluorescence was measured using standard emission filters: green—FL1 (wavelength λ=530±20 nm) and red—FL3 (>600 nm).", "data": [{"compound": "rituximab", "values": [{"measurement": "apoptosis-inducing action (mitochondrial potential) compared with control", "setting": "10 μg/ml, 24-hour cultures", "value": "apoptosis-inducing action in order of spontaneous apoptosis"}]}, {"compound": "Nc1nc(F)nc2c1ncn2[C@@H]1O[C@H](CO)[C@@H](O)[C@@H]1O", "note": "[FA, fludarabine]", "values": [{"measurement": "mean percentage of cells with lower mitochondrial potential (ΔΨm^low/Gly-A^−)", "setting": "24 h", "value": 52.05, "unit": "%"}, {"measurement": "mean percentage of cells with lower mitochondrial potential (ΔΨm^low/Gly-A^−)", "setting": "48 h", "value": 74.49, "unit": "%"}]}]}
